Results on three compounds are retold here after US6407141B1 (priority 1995, dated 2002).

Series [1] concerns melanoma (mouth tumor). Nature of the series: case study, Irish Setter with melanoma, oxalic acid diet and food additive. The following applies: eleven month period; diet, then oxalic acid dihydrate 1 gram down to 20 mg per day in food. It counts as in vivo, canine.
The nature of series [2]: case study, dog at a pound given oxalic acid dihydrate gel cap for seven days. In kind it is in vivo. To be noted: one gram in a gel cap one hour prior to meal time for seven days.
Series [3] relates to bone cancer (sarcoma) of the left hind leg. Description: case study, Doberman pincher with bone cancer, oxalic acid enhanced dogfood. It counts as in vivo, dog. The text has this: In accordance with another case study, a Doberman […] diagnosed with bone cancer (sarcoma) of the left hind leg. The dog had previously been put on medication for arthritis because it would not use or lower its left hind leg. […] A few days later, the dog began taking steps on the left hind leg with a slight limp.

Series [4] deals with gingivitis, tarter and plaque. Description: daily brushing of dog's teeth with oxalic acid solution. To be noted: 150 mg in 300 ml of distilled water, one week. In kind it is in vivo. The source says:
At the completion of the exam, rather than treat the gingivitis with an injection of antibacterial medication followed by oral medication, it was agreed the inventor would commence daily brushing of the dog's teeth. […] The inventor began a daily brushing of the dog's teeth paying particular attention to the upper gums. The brushing was done first thing in the morning before the dog had anything to eat or drink. After the fourth day of brushing, the inventor/owner of the dog, noticed the redness of the gingivitis was disappearing and after one week returned the dog to the veterinarian for a follow-up exam. […] The veterinarian recommended cleaning one side of the dogs upper teeth and continuing with the daily brushing routine.

The test system of series [5] is infected torn toenail. Nature of the series: soaking of poodle's infected paw in oxalic acid solution. The following applies: 150 mg in 300 ml of distilled water, after two soakings; antibiotic also given. In kind it is in vivo, dog. The text has this: On another occasion, the inventor's pet poodle had torn a toenail which became infected. The infection was in an advanced stage which was extremely sensitive and the poodle would not use the leg while walking. The poodle was examined by the veterinarian, received an injection of a antibiotic, and oral capsules were to be given.

Series [6] concerns leukemia with tumors in lymph nodes. Description: case study, leukemia with tumors in lymph nodes. In kind it is in vivo, human. To be noted: after 5-7 days; about 1 to 1 ½ g/day in dilute solution, almost no blockers. The text has this: An adult was terminally ill with leukemia with tumors in their lymph nodes and they had stopped chemotherapy treatment. […] It was hard for them to swallow so they were on a liquid diet because of the swelling of the lymph nodes in and around their mouth and throat.

Series [7] concerns cold, flu virus, sore throat. Description: mouth rinse and gargle case studies, cold, flu, sore throat. To be noted: rinse two minutes and gargle three times a day for four days; two cases. In kind it is in vivo, human. The source says: On another occasion while visiting the veterinary clinic, the inventor noticed the receptionist had symptoms of a cold, and upon questioning the receptionist learned […] was treating a cold which was into the start of the second week. […] The inventor advised the receptionist that, each morning immediately upon rising, and prior to any other substance being put into the mouth, they should take approximately one teaspoon of the solution in their mouth, holding it for a minimum of two minutes, swishing the solution gently around the mouth, then discarding the solution and rinsing the mouth with warm water two or three times. The procedure began Friday night and the following Monday morning the cold was gone.
The dilute solution was the bench mark solution.
On still another occasion a pharmacist, consultant to the inventor, awoke at 2:30 a.m. with a very sore throat, unable to swallow without severe pain, remembered the inventor's description of their own experience, mixed two teaspoons of the bench mark mixture and two teaspoons of warm water, held the mixture in the mouth for two minutes and gargled well. After a 15-minute wait, repeated the procedure and then retired. Upon arising at 6:30 a.m., repeated the procedure one time before leaving for the pharmacy.

The conditions of series [8]: man; cited from earlier work.
The subject of series [9] is tarter or plaque, gums and mouth tissue. Nature of the series: daily use of dental hygiene composition by the inventor. In kind it is in vivo, human. The following applies: 150 mg diluted in 300 ml of distilled water. The source says: The inventor continued to search for other uses of the “miracle bullet” oxalic acid or oxalate compositions for treating the body and immune system. […] There was no more occasional bleeding of the gums during daily brushing, and the surface of the tongue appeared to be more smooth with an even coloring across the surface.

A short description of series [10]: canine urine oxalate count. To be noted: about 1 gram per day intake; 25 Kilogram canine.
For series [11] the following is noted: FIG. 1; cited from earlier work.
Series [12] deals with viral pneumonia. Nature of the series: mouthwash procedure in viral pneumonia. It counts as in vivo, human. The following applies: 150 mg in 300 ml of distilled water, rinse and gargle three times daily, Friday to Sunday; antibiotics also given. As to the method:
Also, their spouse was diagnosed with viral pneumonia by X-ray examination. They were given antibiotics to ward off infections because of a weakened immune system. […] They started the recommended procedure of approximately 2 teaspoons of wash, holding in mouth for 2 minutes then gargle, spit out wash, then rinsing mouth at least twice with warm tap water. The procedure was repeated first thing in the morning immediately after rising and before anything else was put in mouth. It was done mid-day with nothing in mouth one hour prior to wash. At night, the procedure was repeated as the last item before retiring.

In series [13] the test system is fever, burning and irritation when urinating, back pain. Description: vitamin B6 pills for fever, urinary irritation, back pain attributed to oxalic acid. In kind it is in vivo, human. As to the method:
Then Turk's owner moved to Arkansas. His […], who is married and living nearby, worked at a local hospital. One day they began running a high fever in the range of 104° -106°, went home, and went straight to bed. The fever fell, and the next couple of days they returned to work only to have the fever return after a couple of hours. They went home and the cycle repeated. They mentioned this to a doctor in the emergency room and a series of tests were ordered looking for a virus, an infection, even a tubular conception. Turk's owner became involved, because after listening to long, sometimes whispered conversations between their spouse and stepdaughter, they asked what the trouble was. Their spouse explained what had happened and that the doctor was looking for some type of urinary tract or vaginal infection, but there were no positive cultures. […] Their stepdaughter was eating primarily salad bar meals loaded with oxalic acid.

For series [14], the system named is low red blood cell count. Nature of the series: vitamin B6 pills in woman with low red blood cell count. To be noted: 50 mg pills, one a day first week then every other day; three weeks. In kind it is in vivo, human. The text has this:
After retirement, Turk's owner was planning to move and some friends stopped by to visit. One evening while having cocktails with the friends, they began talking about health and age, etc. […] Turk's owner's research had paid off. They gave their organic gardening magazine to the person and urged them to read the article by Judith Benn Hurley. They explained to them that the reason their red cell count was low was because of their diet. […] Their diet contained items high in oxalic acid, like spinach, their favorite salad.

Setting [15] is: after dose reduced to about 1 gram, then about 500 mg per day.

Molecules are shown by their SMILES.

On to `O=C(O)C(=O)O` [oxalic acid dihydrate], for which the mouth tumor size entry in series [1] is on record as “reduced in size”. The adverse effects entry in series [2] is on record as “no adverse effects”. For the same compound, the pain and walking result in series [3] (after about 30 days on the oxalic acid diet) is “no pain during physical exam and was walking normally”. In addition, in series [3] (setting [15]), the “X-ray, area affected by the sarcoma” value is “decrease or reduction in the size of the area affected by the sarcoma” and the “X-ray, bone material” value was “increase in bone material in the area of the sarcoma”. For the same compound, the “use of left hind leg” value in series [3] (within 4 days, about 2 grams added to dry dogfood) was “lowered its left hind leg and used it frequently”.
`O=C(O)C(=O)O` [oxalic acid, ethanedioic acid]: in series [4], the “gingivitis at follow-up exam” value is given as “no more evidence of gingivitis”; the “tarter and plaque at follow-up exam” value is “no tarter but moderate plaque remained”. Further, in series [5], the “infection of the paw” value is “improved dramatically”. In addition, in [6], the “tumors in lymph nodes” value is given as “shrinkage of tumors in the lymph nodes”. Besides, the “soreness of throat and nose, flu virus” value in series [7] was “completely removes all soreness of throat and nose”. For the same compound, in series [8], the “death after ingestion, as early as” value was 3 min and the “death after ingestion, as late as” value is listed as 14 days. Also, in series [9], the “condition of gums and mouth tissue” value was “remarkable improvement”; the “tarter or plaque in the mouth” value was “removal of and prevention of any build up of tarter or plaque”. In [10], the “level of oxalate in the urine” value is ~22000 ng/mL. In addition, in [11], the “stability of solutions to radiation” value is recorded as “decomposed by radiation”. Further, the “effects of the viral pneumonia” value in series [12] is on record as “nearly complete relief”.
In the case of `Cc1ncc(CO)c(CO)c1O.Cl` [vitamin B6, pyridoxine hydrochloride], the symptoms result in series [13] (after the third day) is reported as “all symptoms were gone”. The “back pain without muscle or spine problems” value in [13] (other people) is reported as “found relief”. In addition, the fever entry in series [13] (two pills, one after twelve hours, then one a day, in two days) is reported as “fever was gone”. Further, in series [14], the “outcome, surgery delayed by low red cell count” value was “doctor had just scheduled their operation”.
